{"source": "patent US12076331B2", "about": "“Inositol derivatives for use in pathological crystallization” (ETH Zurich, priority 2015, dated 2024)", "key": {"[1]": {"system": "RPTEC/TERT 1 human proximal tubule cells", "assay": "Imaging assay of CaP adhesion/deposition and cellular changes on RPTEC monolayers", "type": "cell-based", "description": "(A) Heatmap and hierarchical clustering of extracted image features. (B) Selected single features describing cellular changes upon increasing (OEG2)2-IP4 concentrations are depicted. Total cell count, dead cell count, single cell area and single cell solidity, a measure of cell compactness, are shown. (C) Selected single features describing changes in the CaP deposition and membrane pattern upon increasing (OEG2)2-IP4 concentrations are depicted. The total area of the binary calcein staining, colorimetric quantification of calcium content extracted from the monolayer, the maximum intensity of the calcein fluorescence, structural similarity index metric (SSIM) and the correlation of the CellMask channel image are shown. (D) Example brightfield, calcein, CellMask and EthD channel images and two zoomed-in regions of interests (ROI) of RPTEC treated with 13 μM (OEG2)2-IP4 are shown. Mean scaled values per individual experiment are plotted (N=3). Pos.ctrl presents treatment with 5/7 mM Ca/P, neg.ctrl presents medium without Ca/P spiking (=1/1 mM Ca/P present in normal cell medium). Mean of three individual experiments and SD is plotted as grey horizontal and vertical line respectively, one-way ANOVA with Dunnet's multiple comparison between each concentration to pos. ctrl was performed (* p<0.01).\nRPTEC/TERT 1 monolayers at confluence were treated with medium spiked with 7 mM disodium phosphate, 5 mM calcium chloride and compound and were incubated for 24 h. The amount of CaP deposits and the extent of cell injury were detected by calcein and EthD staining, respectively. Fluorescence images were quantified using Matlab. Quantification of the area covered with CaP deposition on RPTEC monolayers with (A) OEG2-IP5, (B) OEG11-IP5, (C) (OEG2)2-IP4, and (D) OEG8-(IP5)2 treatment. (N=3, mean+SD, one-way ANOVA with Dunnett's multiple comparison, * p<0.05, ** p<0.01, *** p<0.001).\nRPTEC/TERT 1 human proximal tubule cells (RPTEC) were cultured in T75 tissue culture flasks using ProxUp basal medium mixed with ProxUp supplements at 37° C. and 5% CO2 according to manufacturer's recommendations. Cells were used up to passage 30 and regularly tested for Mycoplasma infections. For experiments, RPTEC were cultured in 24-well plates at a seeding density of 150′000 cells/cm^2. Cell viability assessment and cell counting before seeding was performed using an automated cell counter (BioRad TC 20, Hercules, CA, USA).\nFor the comparison of selected IP6 analogues, ProxUp basal medium was prepared with the selected inhibitor and added to each well. Then, CaP precipitation was induced by direct addition of first, phosphate and second, calcium. Final concentrations of 7 mM phosphate and 5 mM calcium were used. Cells were incubated for 24 h at 37° C. and 5% CO2. Spiked medium was removed, and cells were washed twice with PBS before staining.\nFor staining, ProxUp basal medium was mixed with calcein (500 nM final concentration), EthD (6 μM final concentration), CellMask stain ([…]) and Hoechst 33342. Staining mixture was added to RPTEC and cells were incubated for 30 min in the dark at 37° C. and 5% CO2. Staining solution was removed, cells were washed with PBS once and ProxUp basal medium was added. Cells were immediately imaged after staining. Images were obtained by epifluorescence microscopy at 37° C., using a Leica CTR6000 microscope. For quantification 3 wells/condition were prepared and 3 images/well were taken. For preliminary adhesion experiments images were taken with a 10× objective, for the imaging assay 20× objective images were taken.\nMultichannel images were saved as individual channel images in 8-bit tiff format. For analysis Hoechst channel images were thresholded using the triangle threshold. Touching nuclei of the binary image were further segmented using the watershed algorithm with the distance transform of the binary image as input and local maxima thereof as seeds. […]"}, "[2]": {"system": "RPTEC/TERT 1 human proximal tubule cells", "assay": "RNA sequencing of Ca/P treated RPTEC", "type": "cell-based", "details": "50 μM, 5/7 mM Ca/P, 24 h", "description": "A) Heatmap and hierarchical clustering of relative gene expression levels determined by RNA sequencing. […] Weighted set coverage of gene ontology terms and their respective enrichment score for differentially expressed genes in the Ca/P vs. medium control group is plotted (all FDR≤0.05). D) Normalized count of gene transcripts (FPKM—fragments per kilobase of exon model per million reads mapped) involved in inflammatory responses, ECM composition, cell proliferation and tissue homeostasis of the different treatment groups is plotted (mean+SD, N=3).\nCells were cultured as described in the imaging assay and treated with a medium control (ProxUp basal medium containing 1/1 mM Ca/P), 5/7 mM Ca/P, 5/7 mM Ca/P in medium containing 50 µM (OEG2)2-IP4 or 50 µM (OEG2)2-IP4 in medium for 24 h. Total RNA was extracted using the RNeasy kit (Quiagen) according to the manufacturer's instructions. Three wells per sample group were prepared and total RNA extracted of those 3 wells pooled. mRNA was purified and RNAseq library was prepared using the TrueSeq RNA kit (Illumina). […] Reads were aligned to the human reference genome GRCh38.p10 using the STAR tool (https://github.com/alexdobin/STAR) and transcripts quantified using the Kallisto program (42). […] For comparison of expression levels of the selected genes, the fragments per kilobase of exon model per million reads mapped (FPKM) were used. […]"}, "[3]": {"details": "reported, Schantl et al. 2020; cited from earlier work"}, "[4]": {"details": "previous study, Kletzmayr et al. 2020; cited from earlier work"}, "[5]": {"details": "6-50 μM, 5/7 mM Ca/P, compared to the positive ctrl"}, "[6]": {"details": "RPTEC, 7 mM phosphate, 5 mM calcium, 24 h"}}}
{"smiles": "COCCOCCO[C@@H]1C(OP(=O)(O)O)[C@H](OCCOCCOC)[C@@H](OP(=O)(O)O)C(OP(=O)(O)O)[C@H]1OP(=O)(O)O", "note": "(stereo partly shown) [(OEG2)2-IP4]", "values": [{"measurement": "number of dead cells", "setting": "[1]; [5]", "result": "dose-dependently reduced"}, {"measurement": "single cell area", "setting": "[1]; [5]", "result": "dose-dependently reduced"}, {"measurement": "single cell solidity", "setting": "[1]; [5]", "result": "increased"}, {"measurement": "total cell count/field of view", "setting": "[1]; [5]", "result": "increased"}, {"measurement": "total CaP area", "setting": "[1]; 6 and 13 μM, 5/7 mM Ca/P, compared to the positive ctrl", "result": "reduction"}, {"measurement": "concentration achieving complete inhibition of CaP adhesion", "setting": "[1]; [6]", "result": 50, "unit": "µM"}, {"measurement": "concentration down to which CaP adhesion was drastically reduced", "setting": "[1]; [6]", "result": 12.5, "unit": "µM"}, {"measurement": "Ca/P-induced change in gene expression profile", "setting": "[2]", "result": "prevented"}, {"measurement": "pharmacokinetic profile", "setting": "[3]", "result": "favorable"}, {"measurement": "efficacy on CaOx crystallization in solution", "setting": "[4]", "result": "limited efficacy"}]}
